In the NIST ThermoML archive (doi:10.1016/j.jct.2014.09.005):
Numbers after ± are expanded uncertainties.

Legend:
[1] = xn = mol fraction of the nth substance listed; settings: 101 kPa, Liquid; for viscosity: Capillary tube (Ostwald / Ubbelohde) method; for mass density: Vibrating tube method
[2] = refractive index (Na D-line) (dimensionless); xn = mol fraction of the nth substance listed; settings: 101 kPa, Liquid, Standard Abbe refractometry

NC1CCCCC1 [cyclohexylamine] + CCCCCCCCCCO
Settings | mass density, [1] [kg/m3] | refractive index, [2] | viscosity, [1] [mPa·s]
293.15 K, x2 = 0.0957 | – | 1.4563 ± 0.00037 | –
293.15 K, x2 = 0.153 | 860.33 ± 0.23 | 1.45514 ± 0.00037 | 3.133 ± 0.067
293.15 K, x2 = 0.1955 | – | 1.45413 ± 0.00037 | –
293.15 K, x2 = 0.1956 | 858.62 ± 0.23 | – | 3.48 ± 0.074
293.15 K, x2 = 0.2939 | 855.14 ± 0.24 | 1.45191 ± 0.00037 | 4.452 ± 0.094
293.15 K, x2 = 0.3417 | 853.45 ± 0.24 | 1.45101 ± 0.00037 | 5.014 ± 0.11
293.15 K, x2 = 0.4077 | 851.25 ± 0.24 | 1.44965 ± 0.00037 | 5.81 ± 0.12
293.15 K, x2 = 0.4581 | 849.54 ± 0.24 | 1.44855 ± 0.00037 | 6.48 ± 0.14
293.15 K, x2 = 0.5059 | 847.91 ± 0.24 | 1.44765 ± 0.00037 | 7.159 ± 0.15
293.15 K, x2 = 0.5401 | 846.76 ± 0.24 | – | 7.628 ± 0.16
293.15 K, x2 = 0.6042 | 844.53 ± 0.24 | 1.44562 ± 0.00037 | 8.558 ± 0.18
293.15 K, x2 = 0.6538 | 842.75 ± 0.24 | 1.44463 ± 0.00037 | 9.276 ± 0.2
293.15 K, x2 = 0.7021 | 840.98 ± 0.24 | 1.44358 ± 0.00037 | 9.963 ± 0.21
293.15 K, x2 = 0.8084 | 837.02 ± 0.24 | 1.44133 ± 0.00037 | 11.52 ± 0.24
293.15 K, x2 = 0.8868 | 834.1 ± 0.24 | 1.43957 ± 0.00037 | 12.69 ± 0.27
298.15 K, x2 = 0.0957 | – | 1.45392 ± 0.00037 | –
298.15 K, x2 = 0.153 | 856.19 ± 0.24 | 1.45279 ± 0.00037 | 2.749 ± 0.058
298.15 K, x2 = 0.1955 | – | 1.45174 ± 0.00037 | –
298.15 K, x2 = 0.1956 | 854.54 ± 0.24 | – | 3.049 ± 0.065
298.15 K, x2 = 0.2939 | 851.2 ± 0.24 | 1.44964 ± 0.00037 | 3.853 ± 0.082
298.15 K, x2 = 0.3417 | 849.56 ± 0.24 | 1.44874 ± 0.00037 | 4.308 ± 0.091
298.15 K, x2 = 0.4077 | 847.42 ± 0.24 | 1.44743 ± 0.00037 | 4.923 ± 0.1
298.15 K, x2 = 0.4581 | 845.76 ± 0.24 | 1.44648 ± 0.00037 | 5.456 ± 0.12
298.15 K, x2 = 0.5059 | 844.17 ± 0.24 | 1.44554 ± 0.00037 | 5.991 ± 0.13
298.15 K, x2 = 0.5401 | 843.04 ± 0.24 | 1.44481 ± 0.00037 | 6.38 ± 0.14
298.15 K, x2 = 0.6042 | 840.86 ± 0.24 | 1.44365 ± 0.00037 | 7.124 ± 0.15
298.15 K, x2 = 0.6538 | 839.13 ± 0.24 | 1.44254 ± 0.00037 | 7.689 ± 0.16
298.15 K, x2 = 0.7021 | 837.39 ± 0.24 | 1.44141 ± 0.00037 | 8.24 ± 0.17
298.15 K, x2 = 0.8084 | 833.53 ± 0.24 | 1.43935 ± 0.00037 | 9.512 ± 0.2
298.15 K, x2 = 0.8868 | 830.66 ± 0.24 | 1.43762 ± 0.00037 | 10.41 ± 0.22
303.15 K, x2 = 0.0957 | – | 1.4514 ± 0.00037 | –
303.15 K, x2 = 0.153 | 851.99 ± 0.24 | 1.45031 ± 0.00037 | 2.406 ± 0.051
303.15 K, x2 = 0.1955 | – | 1.44938 ± 0.00037 | –
303.15 K, x2 = 0.1956 | 850.41 ± 0.24 | – | 2.663 ± 0.057
303.15 K, x2 = 0.2939 | 847.19 ± 0.24 | 1.44747 ± 0.00037 | 3.347 ± 0.071
303.15 K, x2 = 0.3417 | 845.61 ± 0.24 | 1.44642 ± 0.00037 | 3.711 ± 0.079
303.15 K, x2 = 0.4077 | 843.53 ± 0.24 | 1.44514 ± 0.00037 | 4.216 ± 0.089
303.15 K, x2 = 0.4581 | 841.91 ± 0.24 | 1.44424 ± 0.00037 | 4.654 ± 0.099
303.15 K, x2 = 0.5059 | 840.37 ± 0.24 | 1.44335 ± 0.00037 | 5.075 ± 0.11
303.15 K, x2 = 0.5401 | 839.27 ± 0.24 | 1.44256 ± 0.00037 | 5.393 ± 0.11
303.15 K, x2 = 0.6042 | 837.14 ± 0.24 | 1.44137 ± 0.00037 | 5.985 ± 0.13
303.15 K, x2 = 0.6538 | 835.46 ± 0.24 | 1.44039 ± 0.00037 | 6.457 ± 0.14
303.15 K, x2 = 0.7021 | 833.76 ± 0.24 | 1.43943 ± 0.00037 | 6.893 ± 0.15
303.15 K, x2 = 0.8084 | 829.98 ± 0.24 | 1.43724 ± 0.00037 | 7.904 ± 0.17
303.15 K, x2 = 0.8868 | 827.17 ± 0.24 | 1.43565 ± 0.00037 | 8.649 ± 0.18
